Earlier results on eleven molecules are cited in patent publication US20240158516A1, “METHODS FOR THE TREATMENT OF THYROID EYE DISEASE” (Horizon Therapeutics Ireland DAC, priority 2021, published 2024).

Data set [1] deals with IGF-1 R (Homo sapiens, UniProt P08069). Conditions: cited from earlier work.
For data set [2] the following is noted: cited from earlier work.
The subject of data set [3] is tumor. The following applies: in vivo; cited from earlier work.
Data set [4] concerns the target T1, IGF-IR (Homo sapiens, UniProt P08069). Conditions: cited from earlier work.
In data set [5] the target is T1, IGF-IR. The following applies: cited from earlier work. The source holds these as a separate data set.
The conditions of data set [6]: cited from earlier work. The source holds these as a separate data set.
The test system of data set [7] is patients with moderate-to-severe active TED. Conditions: cited from earlier work.
Data set [8] has as its system patients with GO (TED). The following applies: vs. 0.15 mm in the placebo group; cited from earlier work.

Read-outs that look alike come from different tables or passages of the source.

T1 sequence (P08069 31-1367): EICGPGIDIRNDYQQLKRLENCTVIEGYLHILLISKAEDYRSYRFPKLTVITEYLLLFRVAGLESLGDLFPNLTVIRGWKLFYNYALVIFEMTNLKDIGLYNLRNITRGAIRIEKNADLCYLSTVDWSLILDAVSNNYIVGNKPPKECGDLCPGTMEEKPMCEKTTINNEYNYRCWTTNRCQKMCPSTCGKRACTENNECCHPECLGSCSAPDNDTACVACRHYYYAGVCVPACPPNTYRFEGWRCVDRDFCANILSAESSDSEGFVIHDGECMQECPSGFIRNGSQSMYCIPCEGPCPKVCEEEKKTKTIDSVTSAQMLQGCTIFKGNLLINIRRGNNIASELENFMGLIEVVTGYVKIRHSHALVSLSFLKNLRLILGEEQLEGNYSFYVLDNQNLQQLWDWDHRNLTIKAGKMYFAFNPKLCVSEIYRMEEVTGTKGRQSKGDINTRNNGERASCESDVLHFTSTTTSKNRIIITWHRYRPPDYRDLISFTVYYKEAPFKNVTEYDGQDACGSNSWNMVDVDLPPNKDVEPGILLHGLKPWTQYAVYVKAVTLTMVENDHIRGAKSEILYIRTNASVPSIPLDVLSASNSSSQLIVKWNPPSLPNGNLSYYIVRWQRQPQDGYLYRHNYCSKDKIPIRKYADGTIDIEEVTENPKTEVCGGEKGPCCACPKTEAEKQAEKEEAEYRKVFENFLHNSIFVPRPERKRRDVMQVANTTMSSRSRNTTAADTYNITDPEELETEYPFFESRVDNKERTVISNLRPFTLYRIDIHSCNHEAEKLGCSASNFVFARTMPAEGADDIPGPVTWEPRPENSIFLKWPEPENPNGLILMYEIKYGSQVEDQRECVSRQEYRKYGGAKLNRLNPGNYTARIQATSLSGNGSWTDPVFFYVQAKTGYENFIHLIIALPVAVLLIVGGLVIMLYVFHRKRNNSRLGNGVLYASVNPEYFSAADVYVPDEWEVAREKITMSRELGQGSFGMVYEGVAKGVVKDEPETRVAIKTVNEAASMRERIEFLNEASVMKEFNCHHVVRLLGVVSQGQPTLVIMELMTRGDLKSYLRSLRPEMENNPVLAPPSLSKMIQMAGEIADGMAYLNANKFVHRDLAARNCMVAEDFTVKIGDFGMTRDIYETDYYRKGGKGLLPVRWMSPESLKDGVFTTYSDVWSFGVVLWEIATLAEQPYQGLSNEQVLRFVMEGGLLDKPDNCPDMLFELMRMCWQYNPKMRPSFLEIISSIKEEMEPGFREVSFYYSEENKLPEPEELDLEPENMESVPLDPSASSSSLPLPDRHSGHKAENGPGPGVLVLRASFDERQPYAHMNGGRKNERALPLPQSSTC
IGF-1 R, sequence (P08069 31-1367): as above

Turning to `COc1cc(N2CCC(N)CC2)ccc1Nc1ncc(Cl)c(-c2c[nH]c3ccccc23)n1` [AZD3463], the “inhibition of IGF-1 R” value in data set [1] is “potent ALK/IGF-1 R inhibitor”. As to `COCCN1CCN(CCn2ccc(Nc3ncc4c(n3)[C@@H](C)Cc3nn(C)c(-c5ccccc5)c3-4)n2)CC1` [BI885578], the in vivo half-life entry in data set [2] (as a result of rapid metabolic clearance) is reported as “short”. Besides, in data set [2] (in vivo), the intestinal absorption entry is reported as “rapid” and the metabolic clearance result is listed as “rapid”. Turning to `N#CCc1cnc(-c2ccc3ccccc3n2)n1-c1ccnc(NC2CCCNC2)n1` (stereo not shown) [BI893923], in data set [3], the anti-tumor efficacy result is recorded as “anti-tumor efficacy” and the tolerability entry is recorded as “good”.

Regarding `Nc1ncnc2c1c(-c1ccc3[nH]c(Cc4ccccc4Cl)nc3c1)nn2[C@H]1CC[C@H](N2CCOCC2)CC1` [Example A-928605], in data set [4], the “inhibition of IGF-IR on the purified enzyme” value is reported as “potent inhibitor”. The “inhibition of intracellular IGF-IR phosphorylation” value in data set [5] is “potent inhibitor”. For the molecule `C[C@]1(O)C[C@@H](c2nc(-c3ccc4ccc(-c5ccccc5)nc4c3)c3c(N)nccn32)C1` [Linsitinib], the T1/2 entry in data set [6] (oral) is reported as “oral; 2-4 hrs”. For `CN1CCC(Nc2cc(Cl)cc3c(S(=O)(=O)N4CCO[C@H](COc5ccccc5)C4)c(C(N)=O)[nH]c23)CC1` [PL-225B], in data set [1], the “inhibition of IGF-1 R” value is “selectively inhibits IGF-1 R”. Moreover, in data set [6] (oral), the T1/2 entry is reported as “Oral; 21d”. On to “Cixutumumab: IGF-1R inhibitor antibody; HC SEQ ID NO:55, LC SEQ ID NO:56”, for which the T1/2 result in data set [6] (IV) is recorded as “IV; 5 days”. As to “Dalotuzumab: IGF-1R inhibitor antibody; HC SEQ ID NO:7, LC SEQ ID NO:8”, the T1/2 entry in data set [6] (in vivo, iv) is on record as “IV;5 days”.

For the molecule “rituximab: a CD20+ B cell-depleting agent”, in data set [7] (compared with 0.6 mm mean reduction under ivGCs), the “reduction in proptosis compared with the ivGC results” value is recorded as “not different”. In addition, the “effects of rituximab versus placebo” value in data set [7] (first trial, 2015 monocenter RCT) is given as “negative”. Also, in data set [7] (second trial, 2015 monocenter RCT), the “effects of rituximab versus ivGCs” value was “positive”. For “teprotumumab: fully human IGF-IR-inhibitory monoclonal antibody approved for TED; VH SEQ ID NO:90, VL SEQ ID NO:91”, the “exophthalmos decreased by an average of” value in data set [8] is 2.46 mm. The T1/2 entry in data set [6] (IV) is “IV; 8 days”.

B1: Figitumumab: IGF-1R inhibitor antibody; HC SEQ ID NO:39, LC SEQ ID NO:40 (antibody)
heavy: EVQLLESGGGLVQPGGSLRLSCTASGFTFSSYAMNWVRQAPGKGLEWVSAISGSGGTTFYADSVKGRFTISRDNSRTTLYLQMNSLRAEDTAVYYCAKDLGWSDSYYYYYGMDVWGQGTTVTVSSASTKGPSVFPLAPCSRSTSESTAALGCLVKDYFPEPVTVSWNSGALTSGVHTFPAVLQSSGLYSLSSVVTVPSSNFGTQTYTCNVDHKPSNTKVDKTVERKCCVECPPCPAPPVAGPSVFLFPPKPKDTLMISRTPEVTCVVVDVSHEDPEVQFNWYVDGVEVHNAKTKPREEQFNSTFRVVSVLTVVHQDWLNGKEYKCKVSNKGLPAPIEKTISKTKGQPREPQVYTLPPSREEMTKNQVSLTCLVKGFYPSDIAVEWESNGQPENNYKTTPPMLDSDGSFFLYSKLTVDKSRWQQGNVFSCSVMHEALHNHYTQKSLSLSPGK
light: DIQMTQFPSSLSASVGDRVTITCRASQGIRNDLGWYQQKPGKAPKRLIYAASRLHRGVPSRFSGSGSGTEFTLTISSLQPEDFATYYCLQHNSYPCSFGQGTKLEIKRTVAAPSVFIFPPSDEQLKSGTASVVCLLNNFYPREAKVQWKVDNALQSGNSQESVTEQDSKDSTYSLSSTLTLSKADYEKHKVYACEVTHQGLSSPVTKSFNRGEC
modifications: Figitumumab Heavy Chain (HC); Figitumumab Light Chain (LC)
With B1, the T1/2 result in data set [6] (IV) is given as “IV; 20 days”.
